Earlier results on one substance are cited in US11472851B2, “Recombinant bacillus subtilis and application thereof” (priority 2019, dated 2022).

With “Sublancin (GLGKAQCAALWLQCASGGTIGCGGGAVACQNYRQFCR; Sublancin)”, the phagocytosis of macrophages entry in the series with macrophages was “enhance the phagocytosis of macrophages”. Besides, the “immune function of poultry” value with poultry is reported as “enhance the immune function of poultry”.
